Data published in PubChem BioAssay AID1645862 (Buhrlage Lab, Dana-Farber Cancer Institute and Novartis …, 2021).
The source made the active and inactive calls. The rule behind the calls is not given here.

Molecular target: Ubiquitin carboxyl-terminal hydrolase 8 (Homo sapiens) (UniProt P40818)
Assay: Ubiquitin-specific protease 8 inhibitors, concentration-effect, biochemical, validation of initial actives (AID 1645862);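 note: potency reflects inhibition of USP8 cleavage of a ubiquitin rhodamine substrate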
Details: recombinant USP8 deubiquitinase activity assay

Chain of Ubiquitin carboxyl-terminal hydrolase 8 (Homo sapiens) (P40818 whole entry, looked up): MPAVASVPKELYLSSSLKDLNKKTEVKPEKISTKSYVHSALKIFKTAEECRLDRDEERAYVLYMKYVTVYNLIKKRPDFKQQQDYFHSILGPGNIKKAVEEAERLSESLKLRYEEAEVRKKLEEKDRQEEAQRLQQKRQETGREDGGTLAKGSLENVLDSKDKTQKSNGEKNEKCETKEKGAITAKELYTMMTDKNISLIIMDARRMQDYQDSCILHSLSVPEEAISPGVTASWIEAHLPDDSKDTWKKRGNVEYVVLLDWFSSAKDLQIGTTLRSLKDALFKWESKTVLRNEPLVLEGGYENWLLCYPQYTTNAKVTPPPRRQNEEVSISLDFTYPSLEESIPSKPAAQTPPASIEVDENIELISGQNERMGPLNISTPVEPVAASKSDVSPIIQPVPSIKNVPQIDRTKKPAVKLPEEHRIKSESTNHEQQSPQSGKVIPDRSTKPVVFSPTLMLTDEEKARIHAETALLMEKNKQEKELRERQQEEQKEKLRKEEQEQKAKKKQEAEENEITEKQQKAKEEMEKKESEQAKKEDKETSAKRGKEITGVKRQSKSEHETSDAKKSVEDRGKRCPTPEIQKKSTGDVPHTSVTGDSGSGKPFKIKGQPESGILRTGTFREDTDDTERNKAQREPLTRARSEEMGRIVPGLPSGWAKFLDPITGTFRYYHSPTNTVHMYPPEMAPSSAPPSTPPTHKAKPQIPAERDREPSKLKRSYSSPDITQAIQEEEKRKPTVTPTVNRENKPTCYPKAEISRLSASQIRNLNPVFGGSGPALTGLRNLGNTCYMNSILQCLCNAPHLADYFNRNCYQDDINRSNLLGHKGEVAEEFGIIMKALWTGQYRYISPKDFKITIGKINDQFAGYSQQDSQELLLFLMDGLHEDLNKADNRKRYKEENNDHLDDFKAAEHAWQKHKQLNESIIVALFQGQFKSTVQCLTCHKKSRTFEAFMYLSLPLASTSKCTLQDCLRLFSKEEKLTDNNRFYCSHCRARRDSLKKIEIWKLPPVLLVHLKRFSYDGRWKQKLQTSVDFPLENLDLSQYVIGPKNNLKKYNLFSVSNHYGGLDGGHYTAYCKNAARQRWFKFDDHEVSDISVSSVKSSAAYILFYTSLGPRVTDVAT

SMILES	IC50
COc1ccc(Cl)cc1NC(=O)Cn1c(=O)n(CCCCC(=O)NCCc2ccccc2)c(=O)c2ccccc21	> 40 µM (inactive)
Cc1cccc(NC(=O)Nc2ccc(C)n(CC(=O)Nc3ccc(C)c(C)c3)c2=O)c1	> 40 µM (inactive)
Cc1[nH]nc(NC(=O)C2COc3ccccc3O2)c1-c1ccccc1 (stereo not given)	37.3 µM
O=C(COC(=O)C(Cc1c[nH]c2ccccc12)NC(=O)c1ccccc1Cl)Nc1ccc([N+](=O)[O-])cc1C(F)(F)F (stereo not given)	> 40 µM (inactive)
N=C1/C(=C/c2cn(Cc3ccccc3)c3ccccc23)C(=O)N=C2SC(C(F)(F)F)=NN12	> 40 µM (inactive)
Cc1ccc(NC(=O)Cc2sc(Nc3ccc(C)cc3)nc2O)cc1	> 40 µM (inactive)
O=C(Cn1c(=O)c2sccc2n(CC(=O)OCc2ccccc2)c1=O)NCc1ccccc1Cl	> 40 µM (inactive)
CCOc1ccc(NC(=O)Cn2c(=O)n(CCC(=O)NCc3ccccc3OC)c(=O)c3ccccc32)cc1	> 40 µM (inactive)
Cc1ccc(-n2nc(C)c3c2NC(=O)CC3C(=O)c2cc3ccccc3o2)cc1 (stereo not given)	> 40 µM (inactive)
O=C(/C=C/c1c(F)cccc1Cl)N1CCc2ccccc2C1	22 µM
Cc1ccc(-c2nc3c(c(SCC(=O)c4ccccc4)n2)COC(C)(C)C3)cc1	> 40 µM (inactive)
COC(=O)c1ccc2c(=O)n(CCCCCC(=O)NCCc3ccc(OC)c(OC)c3)c(=O)[nH]c2c1	> 40 µM (inactive)
COc1cccc(C(=O)Nc2ccc(SC(C(=O)Nc3ccccc3)c3ccccc3)cc2)c1 (stereo not given)	> 40 µM (inactive)
COc1ccc(Oc2cc3n(c(=O)n2)CCc2cc(OC)c(OC)cc2-3)cc1	> 40 µM (inactive)
c1ccc(CNc2ccc(-c3ccccc3)nn2)cc1	> 40 µM (inactive)
O=C(COc1ccc(N2CC(C(=O)NCc3ccc4c(c3)OCO4)CC2=O)cc1)Nc1ccc(Cl)cc1 (stereo not given)	> 40 µM (inactive)
CCc1[nH]c(=O)cc2cc(OC)c(OC)cc12	0.722 µM
Cn1c(=O)[nH]c(=O)c2c1nc(N1CCc3ccccc3C1)n2CCSc1nnnn1-c1ccccc1	> 40 µM (inactive)
CN1C(=O)COc2cc(-c3noc(C(=O)NCc4ccc(F)cc4)n3)ccc21	> 40 µM (inactive)
COc1ccc(CCNC(=O)Cn2c(=O)c3sccc3n(Cc3cccc([N+](=O)[O-])c3)c2=O)cc1OC	> 40 µM (inactive)
COc1cc(O)cc2c1C(=O)OC(C)CCCCCCC2 (stereo not given)	> 40 µM (inactive)
O=C(Oc1ccc2cc(Br)ccc2c1)c1ccncc1	> 40 µM (inactive)
COc1ccc(-c2n[nH]n3c2nc(=O)c2ccc(C(=O)NCc4ccco4)cc23)cc1	> 40 µM (inactive)

SMILES	IC50
O=C(Cn1c(=O)n(-c2ccc(Cl)cc2)c(=O)c2c3c(sc21)CCCC3)NCC1CCCO1 (stereo not given)	> 40 µM (inactive)
NC(=O)C1(N2CCCCC2)CCN(c2ncc3c(=O)n(-c4ccccc4)c(=O)[nH]c3n2)CC1	> 40 µM (inactive)
O=C(CCc1nnc2n(Cc3ccccc3)c(=O)c3ccccc3n12)NCc1ccc2c(c1)OCO2	> 40 µM (inactive)
O=C(NCc1ccc2c(c1)OCO2)c1cc2c(s1)-c1ccccc1OC2	> 40 µM (inactive)
O=C(COC(=O)c1cccc([N+](=O)[O-])c1)Nc1cccc(Oc2ccccc2)c1	> 40 µM (inactive)
CCCC(O)CCCCCCCc1cc(O)cc(O)c1C(=O)OC(CCC)CCCCCCCc1cc(O)cc(O)c1 (stereo not given)	> 40 µM (inactive)
COc1cccc2cc(C(=O)Nc3nc(-c4ccncc4)cs3)oc12	19.9 µM
Cc1ccc(NC(=O)Nc2ccc(C)n(CC(=O)Nc3ccc(C)cc3C)c2=O)cc1	26 µM
Cc1ccc(N2CC(C(=O)Nc3cccc(-c4noc(C)n4)c3)CC2=O)cc1 (stereo not given)	> 40 µM (inactive)
CC(C)(C)c1ccc(C2CC(=O)C3=C(C2)Nc2ccccc2N(C(=O)CCC(=O)O)C3c2cccc([N+](=O)[O-])c2)cc1 (stereo not given)	> 40 µM (inactive)
CCc1ccc(NC(=O)Cn2c(=O)n(Cc3ccccc3)c(=O)c3nn(CC)cc32)cc1	> 40 µM (inactive)
N#Cc1c(-c2ccc(Cl)cc2)cc(-c2cccc(Br)c2)[nH]c1=O	25.5 µM
C[C@H](NC(=O)Cc1ccccc1F)c1nc2cc(-c3ccccc3F)ncn2n1	> 40 µM (inactive)
COc1cc2c(c(OC)c1OC)-c1ccc(NCCc3cccc(F)c3)c(=O)cc1[C@@H](NC(C)=O)CC2	> 40 µM (inactive)
Cc1ccc(-n2nc(C(=O)Nc3ccc(C)cn3)c3ncn(C)c(=O)c32)cc1	> 40 µM (inactive)
COC(=O)c1ccc2c(=O)n(CCCCCC(=O)NCc3cccc(Cl)c3)c(=O)[nH]c2c1	> 40 µM (inactive)
Cc1ccc(NC(=O)Nc2ccc(C)n(CC(=O)Nc3cccc(C)c3)c2=O)cc1	> 40 µM (inactive)
COc1cc(OC)cc(-c2nc(-c3cn(-c4cccc(F)c4)nn3)no2)c1	33 µM
CCc1ccc(NC(=O)C(C)OC(=O)/C=C/c2ccc(S(=O)(=O)Nc3cccc(S(N)(=O)=O)c3)cc2)cc1 (stereo not given)	> 40 µM (inactive)
Cc1cc(Nc2cccc(Cl)c2)n2nc(-c3cccnc3)nc2n1	> 40 µM (inactive)
N#Cc1ccc(NC(=O)Nc2cccn(Cc3ccccc3Br)c2=O)cc1	> 40 µM (inactive)
Cn1c(=O)c2nc(-c3ccc(Cl)cc3)nnc2n(C)c1=O	0.734 µM
Cn1cc(-c2nc(C(=O)Nc3ccc(C#N)cc3)cs2)c2cccnc21	> 40 µM (inactive)

SMILES	IC50
CCOC(=O)N1CCC(NC(=O)c2cc(C(=O)Nc3ccc(S(=O)(=O)N4CCCCC4)cc3)ccc2CO)CC1	> 40 µM (inactive)
CCOC(=O)C1CCN(Cc2cc(=O)oc3cc(O)c(O)cc23)CC1	1.29 µM
CC(C)Cc1ccc(-c2cc(-c3ccc(C(F)(F)F)cc3)c(C#N)c(=O)[nH]2)cc1	> 40 µM (inactive)
Oc1cccc2nc3c(O)cccc3nc12	8.85 µM
Cc1cccc2nc(CSc3nc4ccc([N+](=O)[O-])cc4[nH]3)cn12	> 40 µM (inactive)
Cc1nc2c(-c3ccc(Cl)cc3)c[nH]n2c(=O)c1Cc1ccccc1	> 40 µM (inactive)
Cc1ccc(C(=O)NCc2ccc(C(=O)Nc3ccc(Cl)cc3)o2)cc1	> 40 µM (inactive)
Cc1ccc(Cl)cc1NC(=O)c1cc(-c2ccccn2)n[nH]1	> 40 µM (inactive)
Cc1ccnc(Nc2nc(-c3ccccc3)c3cc(Cl)ccc3n2)n1	> 40 µM (inactive)
CS(=O)(=O)NC1CCCN(C(=O)Nc2cccc3ccccc23)C1 (stereo not given)	> 40 µM (inactive)
CCc1nnc(-c2ccc3ccn(CC(=O)N4CCN(c5ccccn5)CC4)c3c2)o1	> 40 µM (inactive)
Cc1ccccc1-n1ccc2nc(N3CCCC3)ncc2c1=O	> 40 µM (inactive)
O=C(CSc1nc(=O)n(Cc2ccncc2)c2c1CCC2)NCCc1ccccc1	> 40 µM (inactive)
O=C(NC1(O)C(=O)c2ccccc2C1=O)c1cccc2c1-c1ccccc1C2=O	6.52 µM
COc1ccccc1NC(=O)Cn1cc(C(=O)c2ccc(C)cc2)c(=O)c2cc(Cl)ccc21	> 40 µM (inactive)
O=C(Nc1ccc(-n2cccc2)cc1)c1cccc([N+](=O)[O-])c1	> 40 µM (inactive)
CC(C)=CCc1c2c(c3occ(-c4ccc(O)c(O)c4)c(=O)c3c1O)C=CC(C)(C)O2	16 µM
O=C(c1ccc2occc2c1)N1CCC(S(=O)(=O)c2ccc(-c3ccco3)cc2)CC1	> 40 µM (inactive)
O=C(c1ccc(Cl)cc1)N(c1ccccn1)C1CCCCC1	> 40 µM (inactive)
Cc1ccc(Cn2nnc3c(=O)[nH]c(C4CCN(S(=O)(=O)c5ccc(S(=O)(=O)NC6CCCC6)cc5)CC4)nc32)cc1	> 40 µM (inactive)
O=C(O)c1nccnc1C(=O)N1CCc2ccccc2C1	> 40 µM (inactive)
COC(=O)c1ccc(Cn2nnc3c(=O)[nH]c(C4CCCN(S(=O)(=O)c5ccc(C)cc5)C4)nc32)cc1 (stereo not given)	> 40 µM (inactive)
COc1ccccc1CNC(=O)Cn1cnc2c(-c3ccccc3)csc2c1=O	> 40 µM (inactive)

SMILES	IC50
CCCCCCCCCC(CCCCCCCCCC(=O)O)O[C@H]1O[C@@H](COC(C)=O)[C@H](O)[C@@H](OC(=O)CC(=O)O)[C@H]1O (stereo not given in full)	> 40 µM (inactive)
Cc1cccc(NC(=O)Nc2nnc(CC(=O)NCc3ccccc3)s2)c1	> 40 µM (inactive)
Cc1noc(-c2cc(=O)n(CC(=O)Nc3ccccc3Cl)c3ccccc23)n1	> 40 µM (inactive)
CC1CCCN(S(=O)(=O)c2ccc(-n3cnc(C(=O)NC4CC4)c3)nc2)C1 (stereo not given)	> 40 µM (inactive)
O=C(Cn1nnc2ccccc21)Nc1nc(-c2ccc3c(c2)CCN3C(=O)c2ccccc2F)cs1	> 40 µM (inactive)
COc1ccc(C)cc1NC(=O)Nc1nnc(CC(=O)NCc2ccccc2)s1	> 40 µM (inactive)
CCc1ccc(CN(C)C(=O)c2ccc(NS(=O)(=O)c3ccc(F)c(F)c3)cc2)cc1	> 40 µM (inactive)
O=C(/C=C/c1ccc(Br)cc1)Nc1cnc2ccccc2c1	> 40 µM (inactive)
COc1cccc(CNC(=O)c2nnn(CC(=O)Nc3cc(C)ccc3C)c2N)c1	> 40 µM (inactive)
O=C(Nc1ccccc1-c1nc(-c2ccccn2)no1)c1cc(Cl)ccc1Cl	> 40 µM (inactive)
COc1ccc(Sc2nc3ccccc3n3cnnc23)cc1	32.7 µM
CCn1cc2c(n1)c(=O)n(Cc1ccc(C)cc1)c(=O)n2CC(=O)Nc1ccc(F)cc1	> 40 µM (inactive)
O=C(CCCCCn1c(=O)c2sccc2n(CC(=O)c2ccc(F)cc2)c1=O)NCc1ccccc1Cl	> 40 µM (inactive)
Cc1ccc(NC(=O)Cc2nnc3c(-c4nc(C5CC5)no4)cccn23)cc1F	30.3 µM
O=C(CC1C(=O)Nc2nc3ccccc3n21)Nc1cccc2ccccc12 (stereo not given)	> 40 µM (inactive)
Cn1c2ccccc2c(=O)c2c(=O)n(Cc3ccco3)c(-c3ccccc3F)nc21	29.4 µM
CC(C)Cc1nc2sc3c(SCC(=O)N4CCC(C)CC4)ncnc3c2c2c1COC(C)(C)C2	> 40 µM (inactive)
CCc1cccc(NC(=O)Cc2nnc3ccc(-c4nc(C)no4)cn23)c1	> 40 µM (inactive)
COc1ccc(CSc2nc3ccncc3n2CC(=O)Nc2ccc(C)cc2C)cc1	> 40 µM (inactive)
COc1ccc(C(=O)Nc2ccccc2C(=O)NC(Cc2ccc(O)cc2)C(=O)NNC(=O)Cc2ccc(OC)c(OC)c2)cc1 (stereo not given)	> 40 µM (inactive)
Cc1cc(C)c(C#N)c(N2CCN(CCOc3ccc(Cl)cc3)CC2)n1	> 40 µM (inactive)
